Where two headings read alike, the source gives them in different places.
Key:
Format in all cases: cell-based
[1] = molecular target: T1, 168 GPCRs (Homo sapiens, UniProt O14842)
T1 construct: host or cells: PathHunter cell lines
Method: (§1) Studies were performed at Eurofins DiscoverX Corporation (Fremont, CA) using the GPCRmax assay according to the manufacturer’s protocols. […] Activity greater than 30% typically indicates agonist activity and inhibition greater than 50% indicates antagonist activity. This assay uses enzyme fragment complementation with […] as the functional reporter. When a GPCR is activated, […] is recruited and the reporter is detectable. GPCRmax offers a high-throughput screen of 168 GPCRs for agonist or antagonist activity. Briefly, PathHunter cell lines were propagated, seeded into 384-well microplates and incubated at 37°C. […] Microplates were read following signal generation with a PerkinElmer Envision™ instrument for chemiluminescent signal detection. Compound activity was analyzed using CBIS data analysis suite (ChemInnovation, CA) to determine raw values (RLU). For agonist mode assay, percentage activity was calculated using the following formula: % Activity =100% × (mean RLU of test sample - mean RLU of vehicle control) / (mean MAX control ligand - mean RLU of vehicle control). For antagonist mode assay, percentage inhibition was calculated using the following formula: % Inhibition =100% × (1 - (mean RLU of test sample - mean RLU of vehicle control) / (mean RLU of EC80 control - mean RLU of vehicle control)).

[2] = molecular target: T2, 168 GPCRs (Homo sapiens, UniProt O43193); conditions: MLNR
T2 construct: host or cells: PathHunter cell lines
Method: as §1

[3] = molecular target: T3, 168 GPCRs (Homo sapiens, UniProt O95977)
T3 construct: host or cells: PathHunter cell lines
T3 sequence (O95977 1-384): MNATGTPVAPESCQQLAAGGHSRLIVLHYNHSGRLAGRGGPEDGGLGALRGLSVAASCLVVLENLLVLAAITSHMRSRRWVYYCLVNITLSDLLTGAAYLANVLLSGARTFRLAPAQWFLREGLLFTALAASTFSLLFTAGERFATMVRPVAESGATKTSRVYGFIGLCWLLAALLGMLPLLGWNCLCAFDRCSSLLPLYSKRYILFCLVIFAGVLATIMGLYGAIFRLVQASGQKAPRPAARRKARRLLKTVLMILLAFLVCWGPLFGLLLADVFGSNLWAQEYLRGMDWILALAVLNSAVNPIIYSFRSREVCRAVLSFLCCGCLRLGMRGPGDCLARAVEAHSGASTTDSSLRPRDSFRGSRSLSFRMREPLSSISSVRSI
Method: as §1

[4] = molecular target: T4, 168 GPCRs (Homo sapiens, UniProt P28336); conditions: NMBR
T4 construct: host or cells: PathHunter cell lines
Method: as §1

[5] = molecular target: T5, 168 GPCRs (Homo sapiens, UniProt P32745); conditions: SSTR3
T5 construct: host or cells: PathHunter cell lines
Method: as §1

[6] = molecular target: T6, 168 GPCRs (Homo sapiens, UniProt P41146); conditions: OPRL1
T6 construct: host or cells: PathHunter cell lines
Method: as §1

[7] = molecular target: T7, 168 GPCRs (Homo sapiens, UniProt Q13324)
T7 construct: host or cells: PathHunter cell lines
T7 sequence (Q13324 1-411): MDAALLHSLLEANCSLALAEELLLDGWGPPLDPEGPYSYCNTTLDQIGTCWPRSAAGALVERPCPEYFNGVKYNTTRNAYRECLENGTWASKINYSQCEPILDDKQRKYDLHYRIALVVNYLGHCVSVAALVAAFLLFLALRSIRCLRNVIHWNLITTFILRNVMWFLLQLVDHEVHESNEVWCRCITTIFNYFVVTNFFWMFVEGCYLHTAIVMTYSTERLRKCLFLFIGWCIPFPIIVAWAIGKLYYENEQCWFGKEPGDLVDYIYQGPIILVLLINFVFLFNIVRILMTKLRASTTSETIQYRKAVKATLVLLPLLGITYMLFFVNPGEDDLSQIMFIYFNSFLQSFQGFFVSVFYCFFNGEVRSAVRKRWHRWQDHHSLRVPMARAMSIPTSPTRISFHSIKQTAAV
Method: as §1

[8] = molecular target: T8, 168 GPCRs (Homo sapiens, UniProt Q8NFJ6); conditions: PROKR2
T8 construct: host or cells: PathHunter cell lines
Method: as §1

[9] = molecular target: T9, 168 GPCRs (Homo sapiens, UniProt Q9HB89); conditions: NMU1R
T9 construct: host or cells: PathHunter cell lines
T9 sequence (Q9HB89 1-426): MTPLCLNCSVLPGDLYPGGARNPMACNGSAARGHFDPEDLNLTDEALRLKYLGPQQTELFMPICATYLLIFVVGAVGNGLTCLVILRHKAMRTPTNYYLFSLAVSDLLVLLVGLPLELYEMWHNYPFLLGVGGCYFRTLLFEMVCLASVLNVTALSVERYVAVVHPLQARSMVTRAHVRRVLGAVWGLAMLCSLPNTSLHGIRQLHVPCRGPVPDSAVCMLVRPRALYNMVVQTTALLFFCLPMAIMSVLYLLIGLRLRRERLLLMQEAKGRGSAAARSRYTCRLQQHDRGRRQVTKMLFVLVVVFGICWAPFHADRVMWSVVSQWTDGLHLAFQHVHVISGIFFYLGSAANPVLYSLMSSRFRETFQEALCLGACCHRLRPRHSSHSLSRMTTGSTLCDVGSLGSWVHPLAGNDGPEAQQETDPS
Method: as §1

T2 sequence (O43193 whole entry): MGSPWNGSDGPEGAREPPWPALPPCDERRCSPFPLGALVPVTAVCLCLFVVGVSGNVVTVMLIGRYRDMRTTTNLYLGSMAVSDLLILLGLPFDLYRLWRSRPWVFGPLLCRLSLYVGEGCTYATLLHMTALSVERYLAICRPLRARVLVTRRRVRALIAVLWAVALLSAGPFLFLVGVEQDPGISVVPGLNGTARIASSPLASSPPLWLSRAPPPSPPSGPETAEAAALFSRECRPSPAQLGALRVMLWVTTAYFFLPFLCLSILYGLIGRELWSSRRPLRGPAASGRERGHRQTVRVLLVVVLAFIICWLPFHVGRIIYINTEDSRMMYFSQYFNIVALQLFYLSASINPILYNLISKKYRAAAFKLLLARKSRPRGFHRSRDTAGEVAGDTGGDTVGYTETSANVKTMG
T5 sequence (P32745 whole entry): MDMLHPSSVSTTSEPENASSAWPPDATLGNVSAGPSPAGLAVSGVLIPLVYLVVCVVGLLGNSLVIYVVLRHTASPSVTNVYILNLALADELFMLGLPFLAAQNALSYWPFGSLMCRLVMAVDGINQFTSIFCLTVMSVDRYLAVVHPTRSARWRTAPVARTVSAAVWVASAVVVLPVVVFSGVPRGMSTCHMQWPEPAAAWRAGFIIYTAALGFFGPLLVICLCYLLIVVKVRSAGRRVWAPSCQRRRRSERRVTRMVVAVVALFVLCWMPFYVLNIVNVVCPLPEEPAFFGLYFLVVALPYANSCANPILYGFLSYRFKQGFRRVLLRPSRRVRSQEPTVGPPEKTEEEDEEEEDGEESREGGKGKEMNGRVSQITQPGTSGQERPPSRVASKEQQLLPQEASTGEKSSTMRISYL
T8 sequence (Q8NFJ6 whole entry): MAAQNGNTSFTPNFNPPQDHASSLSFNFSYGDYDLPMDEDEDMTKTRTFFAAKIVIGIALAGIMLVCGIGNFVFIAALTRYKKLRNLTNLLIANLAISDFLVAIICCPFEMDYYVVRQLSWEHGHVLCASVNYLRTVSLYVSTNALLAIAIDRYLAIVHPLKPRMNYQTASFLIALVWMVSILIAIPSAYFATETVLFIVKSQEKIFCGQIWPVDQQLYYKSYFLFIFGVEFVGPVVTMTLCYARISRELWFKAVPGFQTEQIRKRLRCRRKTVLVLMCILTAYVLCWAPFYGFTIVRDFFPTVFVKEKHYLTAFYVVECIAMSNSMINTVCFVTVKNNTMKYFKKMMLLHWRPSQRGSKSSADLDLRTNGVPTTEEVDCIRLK
T4 sequence (P28336 whole entry): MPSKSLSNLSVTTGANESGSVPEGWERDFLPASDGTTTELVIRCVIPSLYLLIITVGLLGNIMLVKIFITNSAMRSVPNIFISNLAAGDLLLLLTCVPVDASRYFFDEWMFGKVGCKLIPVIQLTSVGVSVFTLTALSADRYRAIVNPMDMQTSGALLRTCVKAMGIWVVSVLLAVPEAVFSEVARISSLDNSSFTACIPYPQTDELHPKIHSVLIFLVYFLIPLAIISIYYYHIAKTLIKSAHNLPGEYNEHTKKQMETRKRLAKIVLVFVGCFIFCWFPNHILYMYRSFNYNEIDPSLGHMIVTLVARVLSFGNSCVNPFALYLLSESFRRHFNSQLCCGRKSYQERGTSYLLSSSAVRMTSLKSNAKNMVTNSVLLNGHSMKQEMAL
T6 sequence (P41146 whole entry): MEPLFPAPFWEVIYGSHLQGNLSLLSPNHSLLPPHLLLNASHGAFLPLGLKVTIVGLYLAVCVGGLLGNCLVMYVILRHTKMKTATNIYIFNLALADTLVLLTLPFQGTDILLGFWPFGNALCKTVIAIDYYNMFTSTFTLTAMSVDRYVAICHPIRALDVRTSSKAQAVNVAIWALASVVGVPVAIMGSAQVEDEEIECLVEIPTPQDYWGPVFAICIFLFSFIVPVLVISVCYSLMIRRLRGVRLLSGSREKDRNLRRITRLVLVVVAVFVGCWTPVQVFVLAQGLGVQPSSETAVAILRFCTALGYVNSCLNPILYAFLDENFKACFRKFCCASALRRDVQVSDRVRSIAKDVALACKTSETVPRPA
T1 sequence (O14842 whole entry): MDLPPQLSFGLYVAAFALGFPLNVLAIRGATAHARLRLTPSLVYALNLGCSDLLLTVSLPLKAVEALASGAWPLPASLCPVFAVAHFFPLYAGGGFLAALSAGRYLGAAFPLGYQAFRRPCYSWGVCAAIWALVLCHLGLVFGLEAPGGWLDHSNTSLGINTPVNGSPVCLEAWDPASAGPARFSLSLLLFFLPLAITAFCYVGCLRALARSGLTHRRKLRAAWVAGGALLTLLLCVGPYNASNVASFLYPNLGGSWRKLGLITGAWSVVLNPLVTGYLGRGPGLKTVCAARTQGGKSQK

CNC(C)Cc1ccc2c(c1)OCO2 (stereo not drawn) [MDMA, 3,4-Methylenedioxy methamphetamine, reference compound]
% Agonist Activity ([1]; FFAR1, 1 uM): 3.9% | % Antagonist Activity ([1]; FFAR1, 1 uM): -5.6% | % Agonist Activity ([1]; FFAR1, 10 uM): 7% | % Antagonist Activity ([1]; FFAR1, 10 uM): -0.4% | % Agonist Activity ([2]; 1 uM): -0.3% | % Antagonist Activity ([2]; 1 uM): 6.2% | % Agonist Activity ([2]; 10 uM): -0.1% | % Antagonist Activity ([2]; 10 uM): 16.3% | % Agonist Activity ([3]; EDG6, 1 uM): 6.3% | % Antagonist Activity ([3]; EDG6, 1 uM): 14.1% | % Agonist Activity ([3]; EDG6, 10 uM): 4% | % Antagonist Activity ([3]; EDG6, 10 uM): 18% | % Agonist Activity ([4]; 1 uM): 0% | % Antagonist Activity ([4]; 1 uM): -2.5% | % Agonist Activity ([4]; 10 uM): 0.1% | % Antagonist Activity ([4]; 10 uM): 4.3% | % Agonist Activity ([5]; Conc 1 uM): 2.9% | % Antagonist Activity ([5]; Conc 1 uM): 3.7% | % Agonist Activity ([5]; Conc 10 uM): 0.1% | % Antagonist Activity ([5]; Conc 10 uM): -0.9% | % Agonist Activity ([6]; Conc 1 uM): 0.5% | % Antagonist Activity ([6]; Conc 1 uM): -6.7% | % Agonist Activity ([6]; Conc 10 uM): -0.4% | % Antagonist Activity ([6]; Conc 10 uM): -3.2% | % Agonist Activity ([7]; CRHR2, 1 uM): -0.2% | % Antagonist Activity ([7]; CRHR2, 1 uM): 4.3% | % Agonist Activity ([7]; CRHR2, 10 uM): -0.1% | % Antagonist Activity ([7]; CRHR2, 10 uM): 5.7% | % Agonist Activity ([8]; Conc 1 uM): -0.6% | % Antagonist Activity ([8]; Conc 1 uM): 14.4% | % Agonist Activity ([8]; Conc 10 uM): -0.3% | % Antagonist Activity ([8]; Conc 10 uM): 19.4% | % Agonist Activity ([9]; 1 uM): 0% | % Antagonist Activity ([9]; 1 uM): -3.7% | % Agonist Activity ([9]; 10 uM): -0.1% | % Antagonist Activity ([9]; 10 uM): 6.8%

CNC(C)C(=O)c1ccc2c(c1)OCO2 (stereo not drawn) [methylone]
% Agonist Activity ([1]; FFAR1, 1 uM): 1.7% | % Antagonist Activity ([1]; FFAR1, 1 uM): -7.9% | % Agonist Activity ([1]; FFAR1, 10 uM): 4.5% | % Antagonist Activity ([1]; FFAR1, 10 uM): -13.8% | % Agonist Activity ([2]; 1 uM): -1.5% | % Antagonist Activity ([2]; 1 uM): 15.6% | % Agonist Activity ([2]; 10 uM): -1% | % Antagonist Activity ([2]; 10 uM): 12.3% | % Agonist Activity ([3]; EDG6, 1 uM): -1.7% | % Antagonist Activity ([3]; EDG6, 1 uM): 13.2% | % Agonist Activity ([3]; EDG6, 10 uM): -0.3% | % Antagonist Activity ([3]; EDG6, 10 uM): 7.8% | % Agonist Activity ([4]; 1 uM): 1.1% | % Antagonist Activity ([4]; 1 uM): 10.3% | % Agonist Activity ([4]; 10 uM): 1.2% | % Antagonist Activity ([4]; 10 uM): 13.2% | % Agonist Activity ([5]; Conc 1 uM): 0.7% | % Antagonist Activity ([5]; Conc 1 uM): 13.2% | % Agonist Activity ([5]; Conc 10 uM): 0.3% | % Antagonist Activity ([5]; Conc 10 uM): 8% | % Agonist Activity ([6]; Conc 1 uM): -1.6% | % Antagonist Activity ([6]; Conc 1 uM): 17.1% | % Agonist Activity ([6]; Conc 10 uM): -2.3% | % Antagonist Activity ([6]; Conc 10 uM): 13.2% | % Agonist Activity ([7]; CRHR2, 1 uM): 0.9% | % Antagonist Activity ([7]; CRHR2, 1 uM): -2% | % Agonist Activity ([7]; CRHR2, 10 uM): 0.9% | % Antagonist Activity ([7]; CRHR2, 10 uM): -0.3% | % Agonist Activity ([8]; Conc 1 uM): -0.6% | % Antagonist Activity ([8]; Conc 1 uM): 2% | % Agonist Activity ([8]; Conc 10 uM): -0.6% | % Antagonist Activity ([8]; Conc 10 uM): -6.8% | % Agonist Activity ([9]; 1 uM): 1.3% | % Antagonist Activity ([9]; 1 uM): -6.7% | % Agonist Activity ([9]; 10 uM): 2% | % Antagonist Activity ([9]; 10 uM): -9.3%

Source: publication PMC10882719 (Frontiers in Neuroscience, 2024)
